According to the NIST ThermoML archive (doi:10.1021/je900690d):

Assay: mean ionic activity coefficient (dimensionless); mn = molality of the nth substance listed, in mol/kg
Conditions: 101 kPa, Liquid, Electrochemical Cell

[Cl-].[K+] [potassium chloride] + O
Conditions | mean ionic activity coefficient
278.15 K, m1 = 0.0025 | 0.9474
278.15 K, m1 = 0.0054 | 0.9254
278.15 K, m1 = 0.0083 | 0.91
278.15 K, m1 = 0.014 | 0.8876
278.15 K, m1 = 0.0224 | 0.8637
278.15 K, m1 = 0.034 | 0.8398
278.15 K, m1 = 0.051 | 0.8137
278.15 K, m1 = 0.0752 | 0.7863
278.15 K, m1 = 0.1147 | 0.754
278.15 K, m1 = 0.1839 | 0.7149
278.15 K, m1 = 0.277 | 0.6787
278.15 K, m1 = 0.3883 | 0.6474
278.15 K, m1 = 0.5559 | 0.6129
278.15 K, m1 = 0.7102 | 0.5888
278.15 K, m1 = 0.8997 | 0.5653
278.15 K, m1 = 1.063 | 0.5488
278.15 K, m1 = 1.246 | 0.5333
278.15 K, m1 = 1.405 | 0.522
278.15 K, m1 = 1.547 | 0.5131
288.15 K, m1 = 0.0026 | 0.946
288.15 K, m1 = 0.005 | 0.9269
288.15 K, m1 = 0.0077 | 0.9118
288.15 K, m1 = 0.0129 | 0.8901
288.15 K, m1 = 0.0183 | 0.8733
288.15 K, m1 = 0.026 | 0.8543
288.15 K, m1 = 0.0362 | 0.8346
288.15 K, m1 = 0.0512 | 0.8123
288.15 K, m1 = 0.0744 | 0.7864
288.15 K, m1 = 0.1053 | 0.7607
288.15 K, m1 = 0.1534 | 0.7316
288.15 K, m1 = 0.2433 | 0.6945
288.15 K, m1 = 0.3142 | 0.6736
288.15 K, m1 = 0.4008 | 0.6536
288.15 K, m1 = 0.506 | 0.6346
288.15 K, m1 = 0.6305 | 0.6167
288.15 K, m1 = 0.7893 | 0.5987
288.15 K, m1 = 0.9633 | 0.5828
288.15 K, m1 = 1.142 | 0.5695
288.15 K, m1 = 1.301 | 0.5594
288.15 K, m1 = 1.44 | 0.5515
288.15 K, m1 = 1.567 | 0.545
298.15 K, m1 = 0.0025 | 0.9465
298.15 K, m1 = 0.0049 | 0.9271
298.15 K, m1 = 0.0077 | 0.9114
298.15 K, m1 = 0.0132 | 0.8888
298.15 K, m1 = 0.019 | 0.8713
298.15 K, m1 = 0.0272 | 0.8519
298.15 K, m1 = 0.0384 | 0.8318
298.15 K, m1 = 0.0529 | 0.8116
298.15 K, m1 = 0.0731 | 0.7899
298.15 K, m1 = 0.1027 | 0.766
298.15 K, m1 = 0.1458 | 0.7404
298.15 K, m1 = 0.2002 | 0.7169
298.15 K, m1 = 0.2643 | 0.6961
298.15 K, m1 = 0.3687 | 0.6714
298.15 K, m1 = 0.5383 | 0.6442
298.15 K, m1 = 0.7187 | 0.6245
298.15 K, m1 = 0.8905 | 0.6109
298.15 K, m1 = 1.09 | 0.599
298.15 K, m1 = 1.24 | 0.5921
298.15 K, m1 = 1.398 | 0.5862
308.15 K, m1 = 0.0025 | 0.9451
308.15 K, m1 = 0.005 | 0.9256
308.15 K, m1 = 0.0073 | 0.9123
308.15 K, m1 = 0.0099 | 0.9007
308.15 K, m1 = 0.0151 | 0.8818
308.15 K, m1 = 0.0226 | 0.8616
308.15 K, m1 = 0.0332 | 0.8402
308.15 K, m1 = 0.0491 | 0.8165
308.15 K, m1 = 0.075 | 0.7889
308.15 K, m1 = 0.1006 | 0.7687
308.15 K, m1 = 0.1313 | 0.7499
308.15 K, m1 = 0.1962 | 0.7209
308.15 K, m1 = 0.2752 | 0.6962
308.15 K, m1 = 0.3636 | 0.6759
308.15 K, m1 = 0.4739 | 0.657
308.15 K, m1 = 0.6044 | 0.6402
308.15 K, m1 = 0.7598 | 0.6252
308.15 K, m1 = 0.9162 | 0.6138
308.15 K, m1 = 1.087 | 0.6044
308.15 K, m1 = 1.251 | 0.5978
308.15 K, m1 = 1.397 | 0.5934
308.15 K, m1 = 1.526 | 0.5906
